The target in assay [1] is T1, Aldehyde oxidase 1 (Macaca fascicularis, UniProt Q5FB27).
T1 sequence (Q5FB27 whole entry): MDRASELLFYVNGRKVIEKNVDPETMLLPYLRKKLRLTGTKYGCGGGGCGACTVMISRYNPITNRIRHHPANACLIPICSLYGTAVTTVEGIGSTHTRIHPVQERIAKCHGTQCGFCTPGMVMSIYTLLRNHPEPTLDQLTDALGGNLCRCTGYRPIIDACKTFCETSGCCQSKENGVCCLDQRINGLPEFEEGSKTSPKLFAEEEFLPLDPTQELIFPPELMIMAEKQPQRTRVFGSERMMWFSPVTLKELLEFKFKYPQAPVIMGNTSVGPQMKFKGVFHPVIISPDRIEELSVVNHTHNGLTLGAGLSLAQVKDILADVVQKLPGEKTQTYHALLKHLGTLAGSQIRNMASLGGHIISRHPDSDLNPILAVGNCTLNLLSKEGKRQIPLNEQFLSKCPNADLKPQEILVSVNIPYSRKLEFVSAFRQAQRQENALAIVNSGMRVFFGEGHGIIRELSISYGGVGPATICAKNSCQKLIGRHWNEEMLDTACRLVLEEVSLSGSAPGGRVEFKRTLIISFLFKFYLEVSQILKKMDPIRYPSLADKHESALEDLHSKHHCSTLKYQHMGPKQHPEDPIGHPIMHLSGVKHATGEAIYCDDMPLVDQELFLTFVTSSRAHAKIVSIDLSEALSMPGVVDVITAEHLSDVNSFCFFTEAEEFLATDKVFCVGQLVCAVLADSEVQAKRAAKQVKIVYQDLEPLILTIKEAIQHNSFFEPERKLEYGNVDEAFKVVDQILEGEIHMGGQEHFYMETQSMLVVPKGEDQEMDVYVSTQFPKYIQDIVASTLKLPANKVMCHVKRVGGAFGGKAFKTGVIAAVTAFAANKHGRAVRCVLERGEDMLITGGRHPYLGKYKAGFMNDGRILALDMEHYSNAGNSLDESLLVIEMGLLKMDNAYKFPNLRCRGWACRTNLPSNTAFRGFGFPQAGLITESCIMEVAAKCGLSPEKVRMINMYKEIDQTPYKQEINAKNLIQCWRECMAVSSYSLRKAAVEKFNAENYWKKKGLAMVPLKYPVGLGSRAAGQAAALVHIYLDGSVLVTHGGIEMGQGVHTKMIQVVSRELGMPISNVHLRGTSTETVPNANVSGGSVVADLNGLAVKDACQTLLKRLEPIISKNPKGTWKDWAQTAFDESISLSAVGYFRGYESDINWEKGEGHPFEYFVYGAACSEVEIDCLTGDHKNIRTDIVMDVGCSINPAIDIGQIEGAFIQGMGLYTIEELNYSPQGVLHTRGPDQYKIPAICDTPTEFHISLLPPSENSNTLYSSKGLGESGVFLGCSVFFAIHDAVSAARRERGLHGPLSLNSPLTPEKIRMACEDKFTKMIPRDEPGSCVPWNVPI
Put plainly: Inhibition of monkey aldehyde oxidase.

Assay [2] has as its target T2, Aldehyde oxidase 1 (Rattus norvegicus, UniProt Q9Z0U5).
T2 sequence (Q9Z0U5 whole entry): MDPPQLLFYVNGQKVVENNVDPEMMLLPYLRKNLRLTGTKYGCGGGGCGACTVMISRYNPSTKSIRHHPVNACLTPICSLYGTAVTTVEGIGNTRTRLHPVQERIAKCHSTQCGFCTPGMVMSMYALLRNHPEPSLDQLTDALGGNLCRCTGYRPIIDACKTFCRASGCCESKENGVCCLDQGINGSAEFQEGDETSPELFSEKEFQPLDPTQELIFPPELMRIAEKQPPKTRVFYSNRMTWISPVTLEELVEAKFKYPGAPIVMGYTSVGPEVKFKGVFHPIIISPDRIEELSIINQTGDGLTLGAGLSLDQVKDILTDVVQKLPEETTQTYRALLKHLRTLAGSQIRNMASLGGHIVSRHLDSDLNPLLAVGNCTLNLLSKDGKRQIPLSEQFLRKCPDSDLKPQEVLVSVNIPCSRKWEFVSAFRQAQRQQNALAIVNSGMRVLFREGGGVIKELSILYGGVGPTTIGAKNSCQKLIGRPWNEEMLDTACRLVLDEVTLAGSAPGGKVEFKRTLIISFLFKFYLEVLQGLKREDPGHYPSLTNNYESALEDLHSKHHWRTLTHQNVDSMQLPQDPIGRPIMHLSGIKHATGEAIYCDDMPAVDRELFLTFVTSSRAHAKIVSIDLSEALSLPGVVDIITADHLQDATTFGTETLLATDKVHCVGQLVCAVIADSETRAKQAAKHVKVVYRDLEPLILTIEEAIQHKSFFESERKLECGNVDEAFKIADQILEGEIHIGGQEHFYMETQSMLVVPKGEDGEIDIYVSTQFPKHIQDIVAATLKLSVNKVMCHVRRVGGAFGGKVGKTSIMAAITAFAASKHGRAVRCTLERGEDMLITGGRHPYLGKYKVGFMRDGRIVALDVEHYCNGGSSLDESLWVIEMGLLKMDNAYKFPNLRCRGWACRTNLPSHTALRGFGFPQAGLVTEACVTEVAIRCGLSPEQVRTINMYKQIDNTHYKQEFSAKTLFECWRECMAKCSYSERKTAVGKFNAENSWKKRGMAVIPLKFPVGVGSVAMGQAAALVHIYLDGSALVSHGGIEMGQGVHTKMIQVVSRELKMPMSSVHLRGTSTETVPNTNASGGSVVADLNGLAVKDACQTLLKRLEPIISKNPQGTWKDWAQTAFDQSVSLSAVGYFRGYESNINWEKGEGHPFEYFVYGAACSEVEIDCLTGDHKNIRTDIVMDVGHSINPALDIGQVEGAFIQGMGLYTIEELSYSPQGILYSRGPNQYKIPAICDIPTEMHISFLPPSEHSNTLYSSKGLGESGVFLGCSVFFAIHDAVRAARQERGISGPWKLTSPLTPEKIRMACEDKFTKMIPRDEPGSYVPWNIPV
As to the kind of experiment: Inhibition of rat aldehyde oxidase.

One may read the IC50 as the point on the concentration scale where inhibition reaches its midpoint. In general, Ki refers to a measure of affinity in units of concentration, obtained from inhibition or displacement.

At Aldehyde oxidase 1 [1], `C[C@]12CC[C@@H]3c4ccc(O)cc4CC[C@H]3[C@@H]1CC[C@@H]2O` [ESTRADIOL] returned an IC50 of 12 µM. Besides, on Aldehyde oxidase 1 [2], the Ki was determined as 3 µM.
With `OCCN1CCN(CCCN2c3ccccc3Sc3ccc(Cl)cc32)CC1` [PERPHENAZINE], the figures for the half-inhibitory concentration (IC50) at Aldehyde oxidase 1 [1] and against Aldehyde oxidase 1 [2] were 3.6 µM and 0.74 µM, respectively.

Values taken from ChEMBL document CHEMBL1629464, “Aldehyde oxidase: an enzyme of emerging importance in drug discovery” (J Med Chem, 2010).
